Assay results reported in ChEMBL document CHEMBL1127515, “The [(methyloxy)imino]methyl moiety as a bioisoster of aryl. A novel class of completely aliphatic beta-adrenergic receptor antagonists” (J Med Chem, 1994).

Experiments:
[1] = biological target: Beta-2 adrenergic receptor (Cavia porcellus, UniProt Q8K4Z4); assay: Inhibitory concentration against beta-2-adrenergic receptor in isolated guinea pig tracheal strips
[2] = biological target: Beta-1 adrenergic receptor (Cavia porcellus, UniProt B0FL73); assay: Inhibitory concentration against beta-1-adrenergic receptor in isolated guinea pig atria
[3] = biological target: Beta-2 adrenergic receptor (Bos taurus, UniProt Q28044); assay: Binding affinity against beta-2-adrenergic receptor in bovine lung
[4] = biological target: Beta-1 adrenergic receptor (Rattus norvegicus, UniProt P18090); assay: Binding affinity against beta-1-adrenergic receptor in rat brain; type: tissue-based
Chain of Beta-1 adrenergic receptor (Rattus norvegicus, UniProt P18090) (P18090 whole entry): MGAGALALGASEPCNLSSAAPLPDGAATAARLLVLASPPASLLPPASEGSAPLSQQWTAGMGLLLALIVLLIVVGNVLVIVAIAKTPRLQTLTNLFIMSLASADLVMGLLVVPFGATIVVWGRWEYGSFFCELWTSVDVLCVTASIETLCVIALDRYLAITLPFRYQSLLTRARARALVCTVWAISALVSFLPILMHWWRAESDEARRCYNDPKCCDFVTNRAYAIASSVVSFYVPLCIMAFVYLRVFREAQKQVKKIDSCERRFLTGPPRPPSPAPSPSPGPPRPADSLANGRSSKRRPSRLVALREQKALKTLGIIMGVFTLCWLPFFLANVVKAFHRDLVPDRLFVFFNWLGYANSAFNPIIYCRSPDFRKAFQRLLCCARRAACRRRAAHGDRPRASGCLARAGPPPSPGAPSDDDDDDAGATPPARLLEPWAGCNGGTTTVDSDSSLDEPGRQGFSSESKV

Chain of Beta-2 adrenergic receptor (Cavia porcellus, UniProt Q8K4Z4) (Q8K4Z4 whole entry): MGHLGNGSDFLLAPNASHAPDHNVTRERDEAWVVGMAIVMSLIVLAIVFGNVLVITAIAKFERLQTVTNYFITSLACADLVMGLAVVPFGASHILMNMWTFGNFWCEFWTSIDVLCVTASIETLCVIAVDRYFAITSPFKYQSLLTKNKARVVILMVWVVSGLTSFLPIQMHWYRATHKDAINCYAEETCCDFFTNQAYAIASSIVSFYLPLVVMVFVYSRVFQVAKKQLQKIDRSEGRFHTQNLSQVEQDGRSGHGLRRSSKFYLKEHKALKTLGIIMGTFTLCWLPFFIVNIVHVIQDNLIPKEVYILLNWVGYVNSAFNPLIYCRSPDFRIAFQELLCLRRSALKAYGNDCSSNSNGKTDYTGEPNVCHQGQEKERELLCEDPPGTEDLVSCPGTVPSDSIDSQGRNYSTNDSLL
Chain of Beta-1 adrenergic receptor (Cavia porcellus, UniProt B0FL73) (B0FL73 whole entry): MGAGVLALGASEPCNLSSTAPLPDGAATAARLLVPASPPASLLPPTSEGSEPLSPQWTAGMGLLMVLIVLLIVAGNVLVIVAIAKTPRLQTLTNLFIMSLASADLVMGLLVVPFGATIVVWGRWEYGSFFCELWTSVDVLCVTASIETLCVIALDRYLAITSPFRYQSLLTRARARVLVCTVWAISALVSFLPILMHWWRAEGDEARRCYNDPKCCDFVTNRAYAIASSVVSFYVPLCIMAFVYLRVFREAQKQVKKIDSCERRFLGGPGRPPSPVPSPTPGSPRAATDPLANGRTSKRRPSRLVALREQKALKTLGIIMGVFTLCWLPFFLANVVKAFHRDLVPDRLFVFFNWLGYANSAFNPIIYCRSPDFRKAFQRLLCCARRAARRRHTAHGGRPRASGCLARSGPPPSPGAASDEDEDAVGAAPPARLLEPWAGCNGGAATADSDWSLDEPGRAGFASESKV
Chain of Beta-2 adrenergic receptor (Bos taurus, UniProt Q28044) (Q28044 whole entry): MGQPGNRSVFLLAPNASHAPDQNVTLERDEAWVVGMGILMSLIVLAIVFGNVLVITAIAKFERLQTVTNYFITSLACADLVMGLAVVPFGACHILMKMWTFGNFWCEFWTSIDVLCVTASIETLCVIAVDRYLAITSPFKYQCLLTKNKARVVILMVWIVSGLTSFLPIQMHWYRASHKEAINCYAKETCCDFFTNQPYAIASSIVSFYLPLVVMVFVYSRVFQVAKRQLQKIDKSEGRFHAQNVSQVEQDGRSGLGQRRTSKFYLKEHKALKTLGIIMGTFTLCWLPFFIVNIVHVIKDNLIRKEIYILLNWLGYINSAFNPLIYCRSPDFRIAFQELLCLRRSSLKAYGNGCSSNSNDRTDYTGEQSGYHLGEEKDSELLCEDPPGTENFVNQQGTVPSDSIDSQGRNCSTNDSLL

SMILES	IC50 [1] [nM]	IC50 [2] [nM]	Ki [3] [nM]	Ki [4] [nM]
C/C=N/OCC(O)CNC(C)C (centres undefined)	12900	30200	7200	1480
CC/C=N/OCC(O)CNC(C)(C)C (centres undefined)	1550	26300	1260	500
CCCO/N=C/C(O)CNC(C)(C)C (centres undefined)	269	8320	–	–
CC(C)NCC(O)c1ccc(Cl)c(Cl)c1 (centres undefined) [DICHLOROISOPROTERENOL]	977	115	140	51

Results, then the compound that gave them:

IC50 [1] [nM]	IC50 [2] [nM]	Ki [3] [nM]	Ki [4] [nM]	SMILES
4370	15500	5600	1240	CCCO/N=C/C(O)CNC(C)C (centres undefined)
12000	15500	4580	2200	CC/C=N/OCC(O)CNC(C)C (centres undefined)
3310	12300	3500	1040	CCO/N=C/C(O)CNC(C)C (centres undefined)
4070	13500	1980	760	C/C=N/OCC(O)CNC(C)(C)C (centres undefined)
977	13800	1400	1080	CCO/N=C/C(O)CNC(C)(C)C (centres undefined)
